Patent publication US9701709B2 (REATA PHARMACEUTICALS, INC., priority 2012, dated 2017)
Values joined by “and” are separate entries in the source; they are usually repeats but may differ in a detail not shown here. Equal values may be shown once. Read-outs that look alike come from different tables or passages of the source.

Key:
[1] = system: NQO1 and HMOX1 protein in SH-SY5Y cells; experiment: Western blot of Nrf2 target proteins in SH-SY5Y; type: cell-based, human; details: 24 h
Description: SH-SY5Y cells were plated in 6-well plates at a density of 4×10^5 cells per well. BV-2 cells were plated in 6-well plates at a density of 2.5×10^4 cells per well. […] Following treatment, cells were washed twice with cold PBS and harvested in lysis buffer. Cells were sonicated and debris was cleared by centrifugation (10 min @ 18,000 rcf, Beckman Coulter, microfuge 18 centrifuge). Total protein in supernatant was quantified using Bio-Rad protein reagent with BSA as a standard. Equal amounts of total cellular protein were separated on SDS-PAGE, and proteins were transferred to nitrocellulose membrane. Membranes were blocked for 1 hour in TBST (1×TBS with 0.1% Tween-20) containing 5% milk, washed 3 times with TBST, and incubated with primary antibodies overnight at 4° C. NQO1 antibody was from Abcam (#AB2346); HMOX1 (HO-1) antibody was from Santa Cruz (#sc-10789); actin antibody was from Millipore (#MAB 1501). After washing with TBST, secondary antibodies were added in TBST+5% milk for 1 h at room temperature. AffiniPure goat anti-rabbit or anti-mouse IgG secondary antibodies were from Jackson ImmunoResearch (catalog #111-035-144 and #115-035-146, respectively). Membranes were washed in TBST, developed using ECL, and exposed to X-ray film. […] HMOX1 protein was not detected in untreated or RTA 408-treated SH-SY5Y cells. […] The same amount of 63170 (54.6 nM) was required.

[2] = system: TNF-α-induced NF-κB activation in A549/NF-κB-Luc cells; experiment: TNF-α-induced NF-κB luciferase reporter in A549/NF-κB-Luc; type: cell-based; details: Homo sapiens
Description: (b) TNF-α-induced activation of an NF-κB luciferase reporter in the human A549 cell line.
NF-κB is a transcription factor that plays a central role in the regulation of many immune and inflammatory responses. […] The NIH3T3/NF-κB-luc cell line maintains a chromosomal integration of a Firefly luciferase reporter construct regulated by eight copies of the NF-κB response element. The effects of these compounds can be quantified by measuring the value of the NF-κB IC50.

[3] = system: phosphorylation of IκBα in HeLa cells; experiment: TNF-α-induced phosphorylation of IκBα in HeLa (Western); type: cell-based, human; details: 6 h pretreatment, TNF-α 20 ng/mL 5 min
Description: Total and phosphorylated levels of IκBα were evaluated by Western blot. Primary IκBα antibodies were from Santa-Cruz (sc-371), pIκBα antibody was from Cell Signaling (9246), actin antibody was from Millipore (MAB 1501). Peroxidase-conjugated affini-pure Goat anti-Rabbit (IgG) and peroxidase-conjugated affini-pure Goat anti-Mouse IgG secondary antibodies were purchased from Jackson ImmunoResearch. Protein blots were developed using ECL, and exposed to X-ray film.

LPS-induced sepsis = details: mouse, in vivo
cardiovascular function = experiment: Cardiovascular evaluation in conscious cynomolgus monkeys (telemetry); type: in vivo, cynomolgus monkey
Description: Animals were instrumented with telemetry transmitters for measurement of body temperature, blood pressure, heart rate, and electrocardiogram (ECG) evaluation. Body temperature, systolic, diastolic, and mean arterial blood pressure, heart rate, and ECG parameters (QRS duration and RR, PR, and QT intervals) were monitored continuously from at least 2 h pre-dose until at least 24 h post-dose. ECG tracings were printed at designated time points from the cardiovascular monitoring data and were qualitatively evaluated by a board-certified veterinary cardiologist.
Observations for morbidity, mortality, injury, and availability of food and water were conducted at least twice daily for all animals. Clinical observations were conducted pre-dose, approximately 4 h post-dose, and following completion of the cardiovascular monitoring period. Body weights were measured and recorded on the day prior to each treatment administration.

neurobehavioral measures = experiment: Neurobehavioral evaluation (FOB) in rats; type: in vivo, rat
Description: One additional group of 10 animals/sex served as the control and received vehicle (sesame oil).
Observations for morbidity, mortality, injury, and availability of food and water were conducted twice daily for all animals. Observations for clinical signs were conducted prior to dosing on Day 1 and following each functional observational battery (FOB) evaluation. FOB evaluations were conducted pre-dose (Day −1) and at approximately 4 and 24 h post-dose. Body weights were measured and recorded pre-dose on Day 1.

[4] = Ocular absorption and distribution in rabbits; type: in vivo, rabbit
Description: Using rabbits, the ocular absorption and systemic pharmacokinetic behavior of RTA 408 was evaluated. RTA 408 was administered topically to the eye once per day for five days.

[5] = Metabolism in human liver microsomes; type: in vitro ADME; details: 60-min incubation, NADPH and UGT
[6] = Metabolism in rodent (mouse, rat) liver microsomes; type: in vitro ADME, mice, rats; details: 60-min incubation, NADPH and UGT
CYP2B6 = CYP2B6 (Homo sapiens, UniProt P20813); experiment: CYP450 inhibition in pooled human liver microsomes, CYP2B6; type: in vitro ADME; details: highest concentration tested (3 μM)
Description: In addition, there was little or no evidence of metabolism-dependent inhibition of any of the enzymes tested.

[7] = system: DU-145 prostate cancer cell line; experiment: Cytotoxicity in combination with docetaxel in DU-145; type: cell-based; details: RTA 408 0.125 to 0.75 μM
Description: This evidence supports the concept that RTA 408 could act synergistically with cancer therapeutic agents and may be used in some embodiments to provide greater efficacy in treating cancer patients.

[8] = Distribution into mouse tissues after PO QD×3; type: in vivo; details: mice PO QD×3 25 mg/kg, 6 h after last dose, semi-quantitative
Description: Semi-quantitative analysis of drug content was performed.

[9] = system: rat GSTA2 ARE (Nrf2) in AREc32 reporter cell line; experiment: GSTA2-ARE luciferase reporter in AREc32; details: 15.6 nM, 18 h

CYP2B6, sequence (P20813 whole entry): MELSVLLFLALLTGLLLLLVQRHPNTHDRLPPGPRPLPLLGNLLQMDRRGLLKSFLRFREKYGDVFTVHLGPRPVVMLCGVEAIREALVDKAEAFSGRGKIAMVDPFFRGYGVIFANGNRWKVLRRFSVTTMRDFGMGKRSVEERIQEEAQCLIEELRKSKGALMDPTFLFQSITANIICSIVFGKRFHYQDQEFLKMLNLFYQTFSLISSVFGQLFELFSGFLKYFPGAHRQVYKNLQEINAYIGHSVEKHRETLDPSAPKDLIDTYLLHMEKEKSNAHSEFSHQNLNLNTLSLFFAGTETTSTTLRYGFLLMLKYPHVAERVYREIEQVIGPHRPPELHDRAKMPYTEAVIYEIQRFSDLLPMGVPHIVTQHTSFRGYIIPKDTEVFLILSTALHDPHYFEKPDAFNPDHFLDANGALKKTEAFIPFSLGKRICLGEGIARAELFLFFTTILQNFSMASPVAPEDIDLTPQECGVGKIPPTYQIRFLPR

With `CC1(C)CC[C@]2(NC(=O)C(C)(F)F)CC[C@]3(C)[C@H](C(=O)C=C4[C@@]5(C)C=C(C#N)C(=O)C(C)(C)[C@@H]5CC[C@]43C)[C@@H]2C1` [RTA 408, N-((4aS,6aR,6bS,8aR,12aS,14aR,14bS)-11-cyano-2,2,6a,6b,9,9,12a-heptamethyl-10,14-dioxo-1,2,3,4,4a,5,6,6a,6b,7,8,8a,9,10,12a,14,14a,14b-octadecahydropicen-4a-yl)-2,2-difluoropropanamide] the NQO1 protein levels [1] was “increased NQO1 protein levels in SH-SY5Y cells in a dose-dependent manner”, the IC50 ([2]; not viability normalized, read-out: NF-κB IC50, human A549 cell line (further experimentation)) was 1700 nM and the IC50 ([2]; read-out: NF-κB IC50, human A549 cell line, viability normalized) was 1700 nM. The “TNF-α-induced phosphorylation of IκBα” value [3] was “inhibited TNF-α-induced phosphorylation of IκBα in a dose-dependent manner”, the “Animals surviving until Day 4” value (LPS-induced sepsis) was 80% and 90% and the “Survival, systemic LPS” value (LPS-induced sepsis) was “improved survival”. The “Increase in the corrected QT interval (on average)” value (cardiovascular function; 100 mg/kg oral, not considered treatment related) was 1.6%, the Cardiovascular function (cardiovascular function; oral, doses up to and including 100 mg/kg) was “produced no effects on cardiovascular function” and the “Body weight gain approximately 24 h after dosing” value (neurobehavioral measures; 30 mg/kg) was “Slight decreases in body weight gain”. The Neurobehavioral endpoints (neurobehavioral measures; single oral dose up to and including 30 mg/kg) was “did not produce any adverse effects”, the Ocular tissue distribution ([4]; ocular topical administration) was “highest concentrations of the compound were found in the cornea, retina, or iris” and the “Plasma concentration after ocular administration” value ([4]; topical to the eye once per day for five days) was “lower plasma concentration of RTA 408 relative to when RTA 408 is administered orally”. For the same molecule, the Parent molecule remaining [5] was under 10%, the Parent molecule remaining [6] was over 65% and the inhibition at 3 µM (CYP2B6) was under 50%. The “Cytotoxicity of docetaxel in combination” value [7] was “amplified the cytotoxicity of the chemotherapeutic agent in a statistically significant fashion”, the concentration at 6 h ([8]; brain, read-out: Drug content, Brain) was 1080 nM and the concentration at 6 h ([8]; kidney, read-out: Drug content, Kidney) was 1600 nM. The concentration at 6 h ([8]; liver, read-out: Drug content, Liver) was 985 nM, the concentration at 6 h ([8]; lung, read-out: Drug content, Lung) was 533 nM and the concentration at 6 h ([8]; plasma, read-out: Drug content, Plasma) was 51 nM. For the same molecule, the concentration at 6 h ([8]; whole blood, read-out: Drug content, Whole Blood) was 679 nM and the “Induction of luciferase activity, GSTA2-ARE reporter” value [9] was about 2 fold.
